Measurements from US20110245334A1, “USE OF RACEMATES OF PINOCEMBRIN IN PREPARING MEDICAMENTS FOR TREATING STROKE” (CSPC Zhonggi Pharmaceutical Technology (Shijiazhuang) Co. …, priority 2008, published 2011).

Experiments:
Format in all cases: in vivo, rat
tMCAO rats [1] = experiment: Brain water content, tMCAO time window study; conditions: 2 hours ischemia and 24 hours reperfusion, 1 mg/kg, 3 h
Procedure: (§1) 1. In the test, transient middle cerebral artery occlusion (tMCAO) model of rats was adopted. The reperfusion was performed after focal cerebral ischemia for 2 hours so as to inspect therapeutic time window of pinocembrin after focal cerebral ischemia. The rats were administered by pinocembrin racemate (1 mg/kg, 5 mg/kg, intravenous injection) after reperfusion 1 hour, 4 hours and 6 hours (i.e., ischemia 3 hour, 6 hours and 8 hours). (R)-pinocembrin and (S)-pinocembrin (1 mg/kg, 5 mg/kg, intravenous injection) were administered after reperfusion 1 hour and 4 hours (i.e., ischemia 3 hour and 6 hours). The therapeutic time windows of these drugs in focal cerebral ischemia were assessed by studying their effects to neurological symptom scores, infarct sizes and brain water contents during 24 hours after tMCAO.
(§2) 2.4 Experimental Grouping and Administration • Sham operation group (intravenous injection of normal saline after 3 hours of ischemia); • Model group (intravenous injection of 50 mg/kg hydroxypropyl β-cyclodextrin after 3 hours of ischemia); • Nimodipine group (1 mg/kg, administered after 3 hours of ischemia); • Pinocembrin racemate group (1 mg/kg, 5 mg/kg, administered after 3, 6 and 8 hours of ischemia); • (R)-pinocembrin group (1 mg/kg, 5 mg/kg, administered after 3 and 6 hours of ischemia); • (S)-pinocembrin group (1 mg/kg, 5 mg/kg, administered after 3 and 6 hours of ischemia).
(§3) First administration was performed by intravenous injection, and intraperitoneal injection was carried out once 12 hours later with a dose 1.5 times of that for intravenous injection.
The wet weight of each animal's brain was weighted before sliced. After staining, the brain slices were dried at 105° C. for 24 hours, and the dry weight of each animal's brain was weighted. The brain water contents of animals of various groups were compared. Brain water content=(brain wet weight−brain dry weight)/brain wet weight×100%.

MCAO rats = experiment: Regional cerebral blood flow (LDF), MCAO; conditions: 3 mg/kg
Description: The rats were fixed pronely on the stereotaxic apparatus and subjected to craniotomy. After cleaning for operation visual field, bregma was used as an origin, and a site situated 2 mm behind and 3 mm right to the bregma was selected as a measuring point. The region […] around the site was thinned by a dental drill. In the process, the integrity of dura was maintained and large vessels were avoided. Probe holder was located and fixed.
The rats were supinely fixed on the operating table to carry out MCAO surgery. When a nylon line was inserted in ICA, it was not inserted into intracranial part until LDF value was stable, and blood flow value in 10 min was recorded, and an average value thereof is used as a baseline value of cerebral blood flow. After the MCAO surgery completed, the nylon line was inserted into the intracranial part. When the blood flow value suddenly declined to 20-30% of the baseline value, it was noted that the blood flow in MCA had been blocked. The blood flow value before MCAO in every group was used as a baseline value (100%) of the group. […] LDF value was determined at the same site before the animals was put to death.

plasma fibrinogen = experiment: Plasma fibrinogen assay (ELISA) in SHRSP; parameters: Plasma fibrinogen: unit not given here; conditions: SHRSP rats, 3 mg/kg
Procedure: The mixture was centrifuged for 15 min at 3000 rpm and plasma fibrinogen in liquid supernatant was determined by euzymelinked immunosorbent assay (ELISA).

tMCAO rats [2] = experiment: Infarct volume (TTC), tMCAO time window study; conditions: 2 hours ischemia and 24 hours reperfusion, 1 mg/kg, 3 h
Procedure: as §1, §2, §3
After neurobehavioral scoring, the rats were put to death by decollation and their brain tissues were taken out quickly and put into a refrigerator of −20° C. 10 min later, the brain tissues were moved to an environment of room temperature. After the olfactory bulb, cerebellar and lower brain stem were resected, the brain tissue was cut into six continuous coronal slices with an interval of 2 mm. Then the brain slices were quickly put into 5 ml solution containing 2% TTC and incubated at a constant temperature of 37° C. and in a condition of darkness for 30 min. During the time, the brain slices were tipped every 5 min. […] Every group of brain slices were put in order and photographed. The photographs were processed by an image analysis system and the infarct areas in each slice were calculated. The infarct volume of each slice was calculated via multiplying the infarct area by thickness of slice (2 mm), and the infarct volume was the sum of infarct volumes of all slices. The infarct volume percentage was expressed as: sick-side infarct volume/total sick-side brain volume.

COCCOC(=O)C1=C(C)NC(C)=C(C(=O)OC(C)C)C1c1cccc([N+](=O)[O-])c1 (stereo not shown) [Nimodipine, reference compound]
Brain water content (%) (tMCAO rats [1]): 83.33 ± 1.01% | regional cerebral blood flow (rCBF) (MCAO rats; time point 10 min): 99.91 ± 7.27 % of baseline value | regional cerebral blood flow (rCBF) (MCAO rats; time point 20 min): 32.98 ± 8.09 % of baseline value | regional cerebral blood flow (rCBF) (MCAO rats; time point 30 min): 55.58 ± 6.09 % of baseline value | regional cerebral blood flow (rCBF) (MCAO rats; time point 30 min, listed as nimodipine): 55.58±6.09 % of baseline value | regional cerebral blood flow (rCBF) (MCAO rats; time point 40 min): 67.96 ± 7.81 % of baseline value | regional cerebral blood flow (rCBF) (MCAO rats; time point 50 min): 66.59 ± 9.08 % of baseline value | regional cerebral blood flow (rCBF) (MCAO rats; time point 60 min): 64.09 ± 8.03 % of baseline value | regional cerebral blood flow (rCBF) (MCAO rats; time point 70 min): 65.72 ± 8.58 % of baseline value | regional cerebral blood flow (rCBF) (MCAO rats; time point 80 min): 64.98 ± 6.25 % of baseline value | regional cerebral blood flow (rCBF) (MCAO rats; time point 90 min): 63.99 ± 6.09 % of baseline value | regional cerebral blood flow (rCBF) (MCAO rats; time point 100 min): 67.01 ± 5.67 % of baseline value | regional cerebral blood flow (rCBF) (MCAO rats; time point 110 min): 63.07 ± 6.1 % of baseline value | regional cerebral blood flow (rCBF) (MCAO rats; time point 120 min): 61.85 ± 7.14 % of baseline value | regional cerebral blood flow (rCBF) (MCAO rats; time point 130 min): 67.12 ± 8.09 % of baseline value | regional cerebral blood flow (rCBF) (MCAO rats; time point 140 min): 65.89 ± 6.81 % of baseline value | regional cerebral blood flow (rCBF) (MCAO rats; time point 150 min): 61.8 ± 8.08 % of baseline value | regional cerebral blood flow (rCBF) (MCAO rats; time point 160 min): 63.47 ± 9.03 % of baseline value | regional cerebral blood flow (rCBF) (MCAO rats; time point 170 min): 65.9 ± 7.58 % of baseline value | regional cerebral blood flow (rCBF) (MCAO rats; time point 180 min): 66.08 ± 6.89 % of baseline value | Plasma fibrinogen (plasma fibrinogen): 2.67 ± 0.13 | Infarct percentage (%) (tMCAO rats [2]): 31.30 ± 10.31%
